This note sets out measurements from US20160222014A1, “COMPOUNDS FOR REGULATING FAK AND/OR SRC PATHWAYS” (ASANA BIOSCIENCES, LLC, priority 2013, published 2016).

The target in test [1] is T1, recombinant human FAK1 (Homo sapiens, UniProt Q05397).
T1 construct: fused on or other part: N-terminal 6xHis tag
The experiment in a line: FAK1 HTRF assay. Type of test: biochemical. Put shortly: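 IC50 values derive from HTRF % inhibition (ratio 665/620 nm, Eu–anti-phosphotyrosine 0.1 nM, SA-APC 12 nM). The kinase step ran 45 min at room temperature, pairing 10 nM His-FAK1(692–end) from baculovirus with 0.5 μM gastrin Tyr87 biotin-peptide and a reagent at 10 μM final, pH 7.4. Compound dilutions began at 10 μM.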
(In TR-FRET formats the signal depends on donor and acceptor labels being close together.)

In test [2] the target is T2, Recombinant Src enzyme (Homo sapiens, UniProt P12931).
T2 construct: purchased Millipore 14-326; host or cells: Sf21 insect cells
T2 sequence (P12931 whole entry): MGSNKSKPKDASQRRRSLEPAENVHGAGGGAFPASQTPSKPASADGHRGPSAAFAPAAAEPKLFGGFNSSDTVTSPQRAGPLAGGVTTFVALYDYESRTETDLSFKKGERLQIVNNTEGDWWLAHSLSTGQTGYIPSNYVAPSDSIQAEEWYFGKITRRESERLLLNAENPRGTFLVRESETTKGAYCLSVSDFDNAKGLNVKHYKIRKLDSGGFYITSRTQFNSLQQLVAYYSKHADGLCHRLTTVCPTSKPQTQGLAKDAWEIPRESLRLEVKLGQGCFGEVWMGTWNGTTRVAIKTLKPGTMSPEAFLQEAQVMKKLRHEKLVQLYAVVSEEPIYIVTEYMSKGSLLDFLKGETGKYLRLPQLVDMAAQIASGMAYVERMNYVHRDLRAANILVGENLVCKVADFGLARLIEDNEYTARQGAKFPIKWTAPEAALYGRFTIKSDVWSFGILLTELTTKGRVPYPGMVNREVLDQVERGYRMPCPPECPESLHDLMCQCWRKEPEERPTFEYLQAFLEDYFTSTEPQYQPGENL
The experiment in a line: Src HTRF assay. Type of test: biochemical. Here is the method:
Enzyme assay buffer, supplements, and compounds were prepared as described in the FAK HTRF assay.
Recombinant Src enzyme expressed in Sf21 insect cells was obtained (Millipore, Cat No. 14-326, Lot # D8CN006U-K). A 35 μM stock was used at a final concentration of 5 nM in the assay.
Tyk2 synthetic peptide-Biotinylated-N-terminal tag-[…]
A custom made substrate, a Tyk2 synthetic peptide, biotinylated with an N-terminal tag was obtained (Biopeptide and Sigma, Cat. No. 14918001 VC80021). A 100 μM stock was used at a final concentration of 0.5 μM in the assay.
A 10 mM stock in 100 μL enzyme assay buffer pH7.4 was prepared freshly and used at a final concentration of 10 μM in the assay.
Dasatinib (Bristol-Myers Squibb)
The assay procedure was the same as discussed above.

T1 sequence (Q05397 422-680 limits assumed): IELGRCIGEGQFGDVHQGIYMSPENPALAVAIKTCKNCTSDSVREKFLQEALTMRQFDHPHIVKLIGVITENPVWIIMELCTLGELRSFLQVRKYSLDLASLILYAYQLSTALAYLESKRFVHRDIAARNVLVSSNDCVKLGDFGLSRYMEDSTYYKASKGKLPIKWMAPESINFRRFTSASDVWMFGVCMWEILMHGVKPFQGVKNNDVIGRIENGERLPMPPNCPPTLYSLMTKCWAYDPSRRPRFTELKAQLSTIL

On to `O=C1CCc2cc(Nc3ncc4ccn(S(=O)(=O)c5cccc(OC(F)(F)F)c5)c4n3)ccc2N1` [Example 45], for which the IC50 in test [1] and in test [2] was over 1 µM throughout. Turning to `COc1ccccc1S(=O)(=O)n1ccc2cnc(Nc3cncnc3)nc21` [Example 146], the IC50 in test [1] and in test [2] was over 1 µM in each case. Take `CC(=O)Nc1ccc(S(=O)(=O)n2ccc3cnc(Nc4ccc(CC#N)cc4)nc32)cc1` [Example 183]: the IC50 in test [1] and in test [2] was over 1 µM in each case. Turning to `CN(c1ncccc1Cn1cc2cnc(Nc3ccc4c(c3)CCC(=O)N4)nc2n1)S(C)(=O)=O` [Example 190], the half-inhibitory concentration (IC50) in test [1] and in test [2] was over 1 µM each time. For `CN(c1ncccc1Cn1ccc2cnc(Nc3ccc4c(c3)NC(=O)CC4)nc21)S(C)(=O)=O` [Example 209], the IC50 in test [1] and in test [2] was under 0.02 µM each time. Turning to `O=C1CCc2cc(Nc3ncc4ccn(S(=O)(=O)c5cccc6ccccc56)c4n3)ccc2N1` [Example 223], the IC50 in test [1] and in test [2] was under 0.02 µM throughout. Turning to `CN(c1ncccc1Cn1ccc2cnc(Nc3ncccn3)nc21)S(C)(=O)=O` [Example 227], the IC50 in test [1] and in test [2] was over 1 µM each time. On to `O=C1CCc2cc(Nc3ncc4cnn(S(=O)(=O)c5cccc6cccnc56)c4n3)ccc2N1` [Example 228], for which the IC50 in test [1] and in test [2] was under 0.02 µM throughout. Regarding `N#Cc1ccccc1Nc1ncc2ccn(S(=O)(=O)c3cccc4cccnc34)c2n1` [Example 359], the values for the IC50 in test [1] and in test [2] were under 0.02 µM and over 1 µM, respectively. The like results for `COc1cc(N2CCNCC2)ccc1Nc1ncc2ccn(S(=O)(=O)c3cc(C)cc4cccnc34)c2n1` [Example 360] were, in that order, under 0.02 µM and over 1 µM.

Regarding `O=S(=O)(c1cccc2cccnc12)n1ccc2cnc(Nc3ccc(N4CCNCC4)cc3OC3CCC3)cc21` [Example 362], the half-maximal inhibitory concentration (IC50) in test [1] and in test [2] was over 1 µM in each case. As to `Cc1cc(Nc2cc3c(cn2)cnn3S(=O)(=O)c2cccc3cccnc23)ccc1N1CCOCC1` [Example 374], the figures for the IC50 in test [1] and in test [2] were under 0.02 µM and over 1 µM, respectively. Taken in the same sequence, the figures for `CN(c1ccccc1Cn1ccc2cnc(Nc3ccc(N4CCOCC4)cc3)cc21)S(C)(=O)=O` [Example 385] were under 0.02 µM and over 1 µM. Taken in the same sequence, the figures for `COc1cc(N2CCC(O)CC2)ccc1Nc1cc2c(cn1)cnn2S(=O)(=O)c1cccc2cccnc12` [Example 396] were under 0.02 µM and over 1 µM. Taken in the same sequence, the figures for `COc1cc(N2CCN(C)CC2)ccc1Nc1cc2c(ccn2S(=O)(=O)c2cccc3cccnc23)cn1` [Example 407] were under 0.02 µM and over 1 µM. As for `N#Cc1ccccc1S(=O)(=O)n1ccc2cnc(Nc3ccc(N4CCC(O)CC4)cc3)cc21` [Example 414], the 50% inhibitory concentration (IC50) was under 0.02 µM in test [1] and over 1 µM in test [2]. Taken in the same sequence, the figures for `O=S(=O)(c1cccc2cccnc12)n1ccc2cnc(Nc3ccc(N4CCNCC4)cc3Cl)nc21` [Example 418] were under 0.02 µM and over 1 µM. For `COc1cc(N2CCN(C)CC2)ccc1Nc1ncc2ccn(Cc3ccccc3N(C)S(C)(=O)=O)c2n1` [Example 424], the IC50 was under 0.02 µM in test [1] and over 1 µM in test [2]. Taken in the same sequence, the figures for `COc1cc(N2CCC(OC)CC2)ccc1Nc1cc2c(ccn2S(=O)(=O)c2cccc3cccnc23)cn1` [Example 430] were under 0.02 µM and over 1 µM. Taken in the same sequence, the figures for `Cc1cc(Nc2ncc3ccn(Cc4ccccc4N(C)S(C)(=O)=O)c3n2)ccc1N1CCNCC1` [Example 447] were under 0.02 µM and under 0.02 µM.

Regarding `C[C@H]1CN(c2ccc(Nc3ncc4ccn(Cc5ccccc5N(C)S(C)(=O)=O)c4n3)cc2)CCN1C` [Example 491], the IC50 in test [1] and in test [2] was under 0.02 µM in each case. Take `COc1cc(N2CCN(C)CC2)ccc1Nc1cc2c(ccn2S(=O)(=O)c2ccccc2C#N)cn1` [Example 493]: the figures for the IC50 in test [1] and in test [2] were under 0.02 µM and over 1 µM, respectively. The like results for `CN(c1ccccc1Cn1ccc2cnc(Nc3ccc(N4CCN5CCCC5C4)cc3)nc21)S(C)(=O)=O` (stereo not shown) [Example 496] were, in that order, under 0.02 µM and under 0.02 µM. Turning to `COc1cccc(Nc2ncc3ccn(Cc4ccccc4N(CCN4CCNCC4)S(C)(=O)=O)c3n2)c1` [Example 583], the IC50 in test [1] and in test [2] was over 1 µM in each case. As for `C[C@H]1CN(c2ccc(Nc3ncc4ccn(Cc5cccnc5N(C)S(C)(=O)=O)c4n3)nc2)CCN1` [Example 585, (S)—N-methyl-N-(3-((2-((5-(3-methylpiperazin-1-yl)pyridin-2-yl)amino)-7H-pyrrolo[2,3-d]pyrimidin-7-yl)methyl)pyridin-2-yl)methanesulfonamide], the IC50 in test [1] and in test [2] was over 1 µM each time.

As to `CN(C)C1CCN(c2ccc(Nc3cc4c(cn3)C(C)(C)CN4S(=O)(=O)c3cccc4cccnc34)cc2)CC1` [Example 611], the 50% inhibitory concentration (IC50) in test [1] was under 0.02 µM; in test [2] it was over 1 µM. In the case of `CC1(C)CN(S(=O)(=O)c2cccc3cccnc23)c2nc(Nc3ccc(N4CCC(CO)CC4)cc3)ncc21` [Example 625], in test [2], the IC50 is over 1 µM. Still for that read-out and setting: in the case of `COc1cc(Nc2ncc3c(n2)N(S(=O)(=O)c2cccc4cccnc24)CC3(C)C)ccc1N1CCN[C@@H](C)C1` [Example 627] it was over 1 µM. For `COc1cc(N2CCC(N(C)C)CC2)ccc1Nc1ncc2c(n1)N(S(=O)(=O)c1cccc3cccnc13)CC2(C)C` [Example 650], the IC50 in test [1] was under 0.02 µM; in test [2], over 1 µM.

For the molecule `COc1ccc(Cn2ccc3cnc(Nc4ccc(N5CCN[C@H](C)C5)cc4)nc32)c(N(C)S(C)(=O)=O)c1` [Example 671], the half-maximal inhibitory concentration (IC50) in test [2] was over 1 µM. For `CC1(C)CN(S(=O)(=O)c2cccc3cccnc23)c2nc(Nc3ccc(NC4CCNCC4)cc3)ncc21` [Example 673], the IC50 in test [2] is over 1 µM. Same read-out and setting: in the case of `C[C@H]1CN(c2ccc(Nc3ncc4ccn(Cc5ccc(C#N)cc5N(C)S(C)(=O)=O)c4n3)cc2)CCN1` [Example 685] it was over 1 µM; in that of `CN(C)C1CCN(c2ccc(Nc3ncc4ccn(Cc5ccc(C#N)cc5N(C)S(C)(=O)=O)c4n3)cc2)CC1` [Example 689], over 1 µM. For the molecule `CC1(C)CN(c2ccccn2)c2nc(Nc3ccc4[nH]cc(C5=CCNCC5)c4c3)ncc21` [Example 713], the IC50 in test [1] was under 0.02 µM; in test [2], over 1 µM. Take `COc1ccc(Cn2ccc3cnc(Nc4ccc(N5CCN[C@@H](C)C5)cc4)nc32)c(N(C)S(C)(=O)=O)c1` [Example 714]: the IC50 in test [2] was over 1 µM.

As for `Cc1cn(Cc2cccnc2N(C)S(C)(=O)=O)c2nc(Nc3ccc(N4CCNCC4)cc3)ncc12` [Example 719], in test [2], the IC50 was over 1 µM. Still for that read-out and setting: in the case of `CN(c1ncccc1Cn1cc(F)c2cnc(Nc3ccc(N4CCNCC4)cc3)nc21)S(C)(=O)=O` [Example 722] it was over 1 µM; in that of `CN(C)C1CCN(c2ccc(Nc3ncc4c(C#N)cn(Cc5cccnc5N(C)S(C)(=O)=O)c4n3)cc2)CC1` [Example 728], over 1 µM. On to `C[C@H]1CN(c2ccc(Nc3ncc4ccn(Cc5ccccc5NS(=O)(=O)CCCF)c4n3)c(F)c2)CCN1` [Example 729], for which the IC50 in test [1] and in test [2] was over 1 µM in each case.

In the case of `C[C@H]1CN(c2ccc(Nc3ncc4ccn(Cc5ccccc5N(C)S(=O)(=O)CCCF)c4n3)c(F)c2)CCN1` [Example 730], the IC50 in test [1] and in test [2] was over 1 µM throughout. On to `CN(c1ccccc1Cn1cc(C#N)c2cnc(Nc3ccc(N4CCNCC4)cc3)nc21)S(C)(=O)=O` [Example 731], for which the half-inhibitory concentration (IC50) in test [2] was over 1 µM. `CN(c1ncccc1Cn1cc(C#N)c2cnc(Nc3ccc(N4CCNCC4)cc3)nc21)S(C)(=O)=O` [Example 732]: the IC50 in test [1] and in test [2] was over 1 µM each time. `CN1c2c(Cn3ccc4cnc(Nc5ccc(N6CCNCC6)cc5)nc43)cccc2CS1(=O)=O` [Example 756]: the IC50 in test [2] is over 1 µM. Consider `CC1(C)CN(S(=O)(=O)c2cccc3ccccc23)c2nc(Nc3ccc(N4CCNCC4)cc3)ncc21` [Example 760], for which the IC50 in test [2] is over 1 µM. Same read-out and setting: with `C[C@H]1CN(c2ccc(Nc3ncc4ccn(Cc5cccc6c5N(C)S(=O)(=O)C6)c4n3)cc2)CCN1` [Example 764] the figure was over 1 µM. Regarding `CC1(C)CN(S(=O)(=O)c2cccc3cccnc23)c2nc(Nc3ccc(N4CCN(C5CC5)CC4)cc3)ncc21` [Example 771], the IC50 in test [2] was over 1 µM. Consider `COc1ccc(Cn2ccc3cnc(Nc4ccc(N5CCNCC5)cc4)nc32)c(N(C)S(C)(=O)=O)c1` [Example 772], for which the IC50 in test [2] was over 1 µM. Turning to `CC(c1ccccc1N(C)S(C)(=O)=O)n1ccc2cnc(Nc3ccc(N4CCN[C@H](C)C4)cc3)nc21` (stereo partly shown) [Example 779], the IC50 in test [2] is over 1 µM.

Consider `C[C@H]1CN(c2ccc(Nc3cc4c(cn3)cnn4Cc3cccnc3N(C)S(C)(=O)=O)cc2)CCN1` [Example 781], for which the half-maximal inhibitory concentration (IC50) in test [2] was over 1 µM. Still for that read-out and setting: with `C[C@H]1CN(c2ccc(Nc3ncc4nnn(Cc5cccnc5N(C)S(C)(=O)=O)c4n3)cc2)CCN1` [Example 790] the figure was over 1 µM; with `CC(c1ccccc1Cn1ccc2cnc(Nc3ccc(N4CCC(N(C)C)CC4)cc3)nc21)S(C)(=O)=O` (stereo not shown) [Example 791], over 1 µM.

As usually defined, the IC50 is the concentration that gives 50% inhibition.
